One may read the IC50 as the concentration that inhibits the measured activity by half. As a reminder, the Km is the concentration of substrate that gives half-maximal velocity. In general, kcat/Km refers to the turnover number divided by the Michaelis constant.

Where two headings read alike, the source gives them in different places.

For one data set, the target named is T1, VACV D10 (Vaccinia virus, UniProt P04312).
T1 construct: made in house
Type of data set: biochemical.

Another data set addresses T2, human Dcp1/2 complex (Homo sapiens, UniProt Q8IU60).
T2 construct: His-tag; made in house; host or cells: E. coli BL21(DE3) RIL
Type of data set: biochemical. The settings on record: 11 nM hDcp1/2, inhibitor up to 100 μM, 37 °C, 1 h.

For data set [1], the target named is T3, D9 (Vaccinia virus, UniProt P04311).
T3 construct: His-tag (C); made in house
In words: Time-dependent fluorescence changes of probes 1a-1e on D9 cleavage. Particulars: probe 100 nM, D9 50 nM, pH 7.5 (Figure S1). Type of data set: biochemical. The protocol: Fluorescence emission spectra were recorded using the Agilent Cary Eclipse fluorescence spectrophotometer equipped with the xenon lamp under temperature-controlled conditions. All experiments were performed at 37 °C in the Hellma quartz cuvette (10 × 4 mm) with a sample volume 1000 μL in 10 mM Tris·HCl (pH 7.5), 100 mM KOAc, 2 mM MgCl2, 0.5 mM MnCl2, and 2 mM DTT. Before each measurement, the buffer was degassed. Emission spectra were registered for all excitation maxima (detailed wavelengths for each probe: 1a—exc. 490/em. 512 nm; 1b, 1d, and 1e—345/378 nm; and 1c—420/489 nm).

Data set [2] deals with T3, D9. The format is biochemical. The settings on record: 30 μM compound, 25 nM D9, 30 °C, 2 h, RP HPLC.
Data set [3] addresses T3, D9. The settings on record: cited from earlier work.
Another data set deals with T4, VACV D9 decapping enzyme (Vaccinia virus, UniProt P04311).
T4 construct: His-tag (C); made in house
In words: biochemical. The format is biochemical. Particulars: 3 μM probe 1b, 5 nM D9, 30 °C. The method, then: (§1) Point fluorescence measurements were performed using the BioTek Synergy H1 microplate reader. Before each measurement, the reaction buffer was degassed. Experiments were performed in the Greiner 96-well, black, non-binding plates at 30 °C. Before the measurement, the plate was preincubated for 15 min at 30 °C with mixing (300 rpm). The point fluorescence was registered with 1 min interval and detection at 345 nm excitation wavelength and 378 nm emission wavelength.
Experiments to determine IC50 parameters were performed as point fluorescence measurements. Each well contained an appropriate buffer (10 mM MOPS·HCl, pH 7.0, 100 mM KOAc, containing 2 mM MgCl2, 0.3 mM MnCl2, and 2 mM DTT) with addition of 0.1% BSA, a fluorescent substrate (3 μM of probe 1b), an inhibitor (in half-logarithmic dilution, cinh ∈ 0, 100 μM), and an enzyme (5 nM of D9) to a final volume of 150 μL. To determine the IC50 values, a three parameter dose–response formula with standard hill slope from GraphPad Prism software was fitted [drawing 3] where V/V0 is the relative initial rate of the reaction, Imin and Imax are bottom and top plateaus, and Cinh is the concentration of the inhibitor.

For another data set, the system named is SpDcp1/Dcp2. The settings on record: cited from earlier work.
Data set [4] concerns C[n+]1cn([C@@H]2O[C@H](COP(=O)(O)OP(=O)([O-])OP(=O)(O)CCc3cn(CCOCCOCCNC(=O)Cc4ccc5ccc6cccc7ccc4c5c67)nn3)[C@@H](O)[C@H]2O)c2nc(N)[nH]c(=O)c21. In words: Michaelis-Menten kinetics of probe 1b hydrolysis by D9. The format is biochemical, Vaccinia virus. Particulars: other: probe 0-15 μM, 5 nM D9; means of three experiments ± SEM; pH 7.0; 30.0 °C. The protocol: as §1
To determine the kinetic parameters of enzymatic hydrolysis of probe 1b by D9 enzyme, point fluorescence measurements were performed. Each well of the plate contained an appropriate buffer (10 mM MOPS·HCl, pH 7.0, 100 mM KOAc, containing 2 mM MgCl2, 0.3 mM MnCl2, and 2 mM DTT) with addition of 0.1% BSA, a substrate (probe 1b at a concentration range 0–15 μM) and an enzyme (5 nM of D9) to a final volume of 150 μL. The measurement was carried out on until full saturation, which allowed us to convert the initial rates from au/min to mol/min/mg. The initial rates were calculated by fitting a linear curve to the first 10 points (10 min) of the hydrolysis reaction. […]

[5] abbreviates: in-house nucleotide library (Table S1, Figure 3), means of 3 independent experiments ± SEM, read-out: IC50, nucleotide-derived compounds, FLINT HTS assay.
Setting [6] is: read-out: IC50, nucleotide-derived compounds, FLINT HTS assay, in-house nucleotide library (Table S1, Figure 3), means of 3 independent experiments ± SEM.

In the case of `CC[C@H](CO)Nc1nc(NCc2ccccc2)c2ncn(C(C)C)c2n1` [seliciclib, reference compound], on VACV D10, the “inhibitory activity toward D10” value is “very low inhibitory activity”. For the same compound, the “inhibitory activity toward Dcp1/2” value at human Dcp1/2 complex is “very low inhibitory activity”.
As to `C[n+]1cn([C@@H]2O[C@H](COP(=O)(O)OP(=O)([O-])OP(=O)(O)CCc3cn(CCOCCOCCNC(=O)Cc4ccc5ccc6cccc7ccc4c5c67)nn3)[C@@H](O)[C@H]2O)c2nc(N)[nH]c(=O)c21` [Compound 1b, m^7GTP-Py], the “time to complete hydrolysis by D9” value at D9 [1] is listed as ~ 40 min.
For `Cn1c[n+]([C@@H]2O[C@H](COP(=O)(O)OP(=O)([O-])OP(=O)(O)OC[C@H]3O[C@@H](n4cnc5c(=O)[nH]c(N)nc54)[C@H](O)[C@@H]3O)[C@@H](O)[C@H]2O)c2nc(N)[nH]c(=O)c21` [m7GpppG], at D9 [2], the “susceptibility to hydrolysis by D9” value was “very poor D9 substrates”. Further, the “D9 inhibition (literature)” value at D9 [3] is recorded as “less potent D9 inhibitors”. For the same compound, the IC50 on VACV D9 decapping enzyme (LOPAC hits and reference compounds (Table 2), mean ± SEM of three experiments, read-out: IC50, inhibitors identified by HTS screening) was 15 ± 2 µM; on VACV D9 decapping enzyme (setting [5]) it was 11.3 ± 1.9 µM.
As to `Cc1cc(C)n2c1C=C1C=CC(CNC(=O)CSP(=O)([O-])OP(=O)(O)OP(=O)(O)OC[C@H]3O[C@@H](n4c[n+](C)c5c(=O)[nH]c(N)nc54)[C@H](O)[C@@H]3O)=[N+]1[B-]2(F)F` [Compound 1a, m^7GTPγS-BODIPY-FL], on D9 [1], the “time to complete hydrolysis by D9” value is ~ 40 min.
For `C[n+]1cn([C@@H]2O[C@H](COP(=O)(O)OP(=O)([O-])OP(=O)(O)CP(=O)(O)O)[C@@H](O)[C@H]2O)c2nc(N)nc(O)c21` [m7GpppCH2p], at VACV D10, the “inhibitory activity toward D10” value was “weak inhibitory activity”. Also, the IC50 on VACV D9 decapping enzyme (setting [6]) was ~0.08 µM.
Take `C[n+]1cn([C@@H]2O[C@H](COP(=O)([S-])OP(=O)(O)OP(=O)(O)OP(=O)([S-])OC[C@H]3O[C@@H](n4c[n+](C)c5c(O)nc(N)nc54)[C@H](O)[C@@H]3O)[C@@H](O)[C@H]2O)c2nc(N)nc(O)c21` (some centres unmarked) [m7GpSpppSm7G D3]: the “inhibition of yeast decapping enzyme SpDcp1/Dcp2 (literature)” value in the data set on SpDcp1/Dcp2 is on record as “inhibitor”. For the same compound, the IC50 on VACV D9 decapping enzyme (setting [6]) came to 3.6 ± 0.4 µM.
As to `Cn1c[n+]([C@@H]2O[C@H](COP(=O)([O-])OP(=O)(O)OP(=O)(O)O)[C@@H](O)[C@H]2O)c2nc(N)[nH]c(=O)c21` [m7GTP], at D9 [2], the “susceptibility to hydrolysis by D9” value is “very poor D9 substrates”. Moreover, the “D9 inhibition (literature)” value at D9 [3] was “less potent D9 inhibitors”. Also, the IC50 at VACV D9 decapping enzyme (setting [5]) stood at 0.77 ± 0.06 µM.
As to “VACV D9 decapping enzyme (Vaccinia virus WR)”, in data set [4], the Km worked out at 12.9 ± 2.2 µM and the kcat/Km was 6300 ± 1200 M⁻¹ s⁻¹.

Values taken from paper PMC9207806 (ACS Chemical Biology, 2022).
